Measured values reported in patent US9040725B2, “Benzocycloheptane and benzoxepine derivatives” (Janssen Pharmaceutica NV, priority 2008, dated 2015).
Counter-ions that a name gives are not always drawn. Like-named read-outs stand apart in the source and are kept apart here.

Experiments:
GHS1A-receptor = molecular target: T1, GHS1A-receptor (Homo sapiens, UniProt Q92847); experiment: Ghrelin-agonism in HEK293 cells (intracellular calcium, FLIPR); type: cell-based; conditions: HEK293 cells permanently transfected with GHS1A-receptor, calcium fluorescence (fluo-4 or Kit-3), EC50 in M, read-out: pEC50 (converted)
T1 construct: expressed in transfected cells; host or cells: HEK293
T1 sequence (Q92847 whole entry): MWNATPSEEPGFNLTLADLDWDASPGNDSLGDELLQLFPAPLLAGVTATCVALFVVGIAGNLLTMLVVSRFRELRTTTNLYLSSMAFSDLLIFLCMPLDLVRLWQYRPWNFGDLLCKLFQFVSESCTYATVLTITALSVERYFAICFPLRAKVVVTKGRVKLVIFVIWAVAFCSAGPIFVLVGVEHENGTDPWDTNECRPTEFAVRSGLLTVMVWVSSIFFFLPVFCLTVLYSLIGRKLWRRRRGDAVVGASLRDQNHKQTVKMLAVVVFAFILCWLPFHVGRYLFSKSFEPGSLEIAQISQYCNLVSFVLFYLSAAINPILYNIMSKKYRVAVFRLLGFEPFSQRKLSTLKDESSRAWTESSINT
Experimental: One day before the experiment, HEK293 cells, permanently transfected with the gene sequence for expression of the GHS1A-receptor, were seeded in poly-D-Lysine coated 96-well plates with clear bottom, and allowed to grow to […] of confluence on the next day.
Then, cells were incubated with the calcium-sensitive intracellular fluorescent probe fluo-4 or Kit-3 for 1 h at 37° C. Fluorescence representing free intracellular calcium in the cells was measured in a FLIPR-system (excitation at 488 nm, emission>520 nm). Test compounds were added to each well at the desired concentration and the fluorescence signal was simultaneously recorded in all wells. Release of intracellular calcium triggered by activation of the receptors upon addition of the test compound was measured as the fluorescence emitted from the complex of calcium and the fluorescent probe. The drug effect on fluorescence intensity was expressed relative to the maximal fluorescence intensity measured in cells exposed to the calcium-ionophore ionomycin.

NMRI-mice = experiment: Acceleration of gastric emptying and small intestinal propulsion in NMRI-mice; type: in vivo; conditions: Mus musculus, sc, lowest active dose, subcutaneous, 30 min before phenol red test meal
Experimental: Male NMRI-mice weighing around 25 gram were fasted for 20 h and had free access to drinking water. Test compounds were administered to the animals by subcutaneous route 30 min before they were given a test meal by oral gavage. The test meal consisted of 0.3 ml of a chocolate nutridrink solution (1.0 kcal/ml) containing phenol red marker (5 mg/ml). Fifteen min after administration of the meal, the mice were sacrificed by CO2 gas inhalation. The phenol red content remaining in the stomach (extracted from the stomach with NaOH) was determined at 557 nm in a spectrophotometer and expressed as extinction units. Small intestinal propulsion was determined as the distance traveled by the phenol red marker through the intestine and expressed as a percentage of total small intestinal length (from the pylorus to the ileo-cecal junction).
The lowest dose that was active for each parameter was noted as the lowest active dose (LAD). Table 12 discloses LAD values.

[1] = active when >60% of animals had phenol red front beyond 85% of small intestinal length, read-out: LAD (mg/kg) Small intestinal propulsion
[2] = stomach content 15 min after meal, active when >60% of animals below 0.9 extinction units, read-out: LAD (mg/kg) Gastric emptying

SMILES	melting point [°C]	EC50 (GHS1A-receptor) [nM]	minimal effective dose (NMRI-mice; [1]) [mg/kg]	minimal effective dose (NMRI-mice; [2]) [mg/kg]
CNCCCC1(O)c2ccccc2CCCC1c1ccc(OC)cc1 (racemic) (as salt: oxalate) [Compound 65]	134.3			
COCCN(C)CCCC1(O)c2ccccc2CCCC1c1ccc(F)cc1F (racemic) (as salt: oxalate) [Compound 58]	140			
COc1cccc([C@H]2CCCc3ccccc3[C@]2(O)CCCN(C)C)c1 (racemic) (as salt: oxalate) [Compound 14, (±)cis-5-(3-Dimethylamino-propyl)-6-(3-methoxy-phenyl)-6,7,8,9-tetrahydro-5H-benzocyclohepten-5-ol oxalate]	108			
OC1(CCCN2CCCCC2)c2ccccc2CCCC1c1ccc(F)cc1F (racemic) (as salt: oxalate) [Compound 59]	211.5			
CN(C)CCCC1(O)c2ccccc2CCCC1c1ccccc1 (single isomer, unassigned) (as salt: oxalate) [Compound 105]	178			
Cc1ccc(C2CCCc3ccccc3C2(O)CCCN(C)C)cc1 (racemic) (as salt: oxalate) [Compound 29]	161.8			
OC1(CCCN2CCCCC2)c2ccccc2CCCC1c1ccc(Cl)cc1 (racemic) (as salt: oxalate) [Compound 50]	201.1			
CCN(CC)CCCC1(O)c2ccccc2CCCC1c1ccc(OC)cc1 (racemic) (as salt: oxalate) [Compound 67]	153			
CCN(CC)CCCC1(O)c2ccccc2CCCC1c1ccc(C)cc1 (racemic) (as salt: oxalate) [Compound 31]	158.6			
COCCN(C)CCCC1(O)c2ccccc2CCCC1c1ccc(F)cc1F (racemic) [Compound 58]		126	> 10	> 10
OC1(CCCN2CCCC2)c2ccccc2CCCC1c1ccccc1 (racemic) (as salt: oxalate) [Compound 21]	202			
CCN(CC)CCCC1(O)c2ccccc2CCCC1c1ccc(OC)cc1 (racemic) [Compound 67]		158	> 10	> 10
CNCCCC1(O)c2ccccc2CCCC1c1ccccc1 (racemic) (as salt: oxalate) [Compound 19]	129			
COc1ccccc1C1CCOc2ccccc2C1(O)CCCN(C)C (racemic) [Compound 96]		2000	> 10	> 10
CN(C)CCCC1(O)c2ccccc2OCCC1c1ccc(Cl)cc1 (racemic) [Compound 94]		31.6	2.5	10
OC1(CCCN2CCCC2)c2ccccc2CCCC1c1ccc(Cl)cc1 (racemic) (as salt: oxalate) [Compound 48]	236.2			
CN(C)CCCC1(O)c2ccccc2CCCC1c1ccc(F)cc1F (racemic) [Compound 56]		25.1	> 10	10
CN(C)CCCC1(O)c2ccccc2CCCC1c1ccc(Cl)cc1 (single isomer, unassigned) (as salt: oxalate) [Compound 3]	168.7			
CN(C)CCCC1(O)c2ccccc2CCCC1c1ccccc1 (single isomer, unassigned) (as salt: oxalate) [Compound 104]	210			
CC(=O)N1CCN(CCCC2(O)c3ccccc3CCCC2c2ccc(F)cc2F)CC1 (racemic) [Compound 60]		3980	10	> 10
CN(C)CCC[C@@]1(O)c2ccccc2CCC[C@@H]1c1ccc(Cl)cc1 (racemic) [Compound 1]		39.8	2.5	2.5
CCN(CC)CCCC1(O)c2ccccc2OCCC1c1ccc(Cl)c(OC)c1 (racemic) [Compound 98]		10	10	10
Cc1ccc(C2CCOc3ccccc3C2(O)CCCN(C)C)cn1 (racemic) [Compound 99]		794	> 10	10
OC1(CCCN2CCCC2)c2ccccc2CCCC1c1ccccc1 (racemic) [Compound 21]		79.4	> 10	> 10
CNCCCC1(O)c2ccccc2CCCC1c1ccc(C)cc1 (racemic) [Compound 27]		79.4	> 10	> 10
Cc1ccc(C2CCCc3ccccc3C2(O)CCCN(C)C)cc1 (racemic) [Compound 29]		15.8	10	10
CNCCCC1(O)c2ccccc2CCCC1c1ccc(Cl)cc1 (racemic) [Compound 43]		126	> 10	> 10
CCN(CC)CCCC1(O)c2ccccc2CCCC1c1cccc(Cl)c1 (racemic) [Compound 41]		7.94	> 10	> 10

Second part, led by results:

melting point [°C]	EC50 (GHS1A-receptor) [nM]	SMILES	minimal effective dose (NMRI-mice; [1]) [mg/kg]	minimal effective dose (NMRI-mice; [2]) [mg/kg]
160.3		CCN(CC)CCCC1(O)c2ccccc2CCCC1c1ccc(F)cc1F (racemic) (as salt: oxalate) [Compound 57]		
160.3		CCN(CC)CCCC1(O)c2ccccc2CCCC1c1cccc(Cl)c1 (racemic) (as salt: oxalate) [Compound 41]		
100		COc1ccc(C2CCCc3ccccc3C2(O)CCCN(C)C)cc1 (racemic) (as salt: oxalate) [Compound 66]		
132.2		COCCN(C)CCCC1(O)c2ccccc2CCCC1c1ccc(OC)cc1 (racemic) (as salt: oxalate) [Compound 70]		
204.8		Cc1cccc(C2CCCc3ccccc3C2(O)CCCN2CCOCC2)c1 (racemic) (as salt: oxalate) [Compound 25]		
144.9		COCCN(C)CCCC1(O)c2ccccc2CCCC1c1ccc(C)cc1 (racemic) (as salt: oxalate) [Compound 30]		
136		CN(C)CCC[C@@]1(O)c2ccccc2OCC[C@@H]1c1ccccc1 (relative stereo) (as salt: oxalate) [Compound 8]		
235.8		CNCCCC1(O)c2ccccc2CCCC1c1ccc(C)cc1 (racemic) (as salt: oxalate) [Compound 27]		
	398	CNCCC[C@@]1(O)c2ccccc2OCC[C@@H]1c1ccc(C)cc1 [Compound 11]	> 10	> 10
191.1		COCCN(C)CCCC1(O)c2ccccc2CCCC1c1ccc(O)cc1 (racemic) (as salt: oxalate) [Compound 37]		
	2000	CN(C)CCCC1(O)c2ccccc2CCCC1c1ccc(O)cc1 (racemic) [Compound 35]	> 10	> 10
189.8		CCN(CC)CCCC1(O)c2ccccc2CCCC1c1ccc(Cl)cc1 (racemic) (as salt: HCl) [Compound 46]		
	25.1	CN(C)CCCC1(O)c2ccccc2CCCC1c1ccc(Br)cc1 (racemic) [Compound 38]	> 10	> 10
	50.1	CNCCCC1(O)c2ccccc2CCCC1c1cccc(Cl)c1 (racemic) [Compound 39]	> 10	> 10
